“Also recorded” adds a separate entry of the source.
Assays:
[1] = tested on: placenta cytotrophoblast cell line (HTR); test: Secretion of VEGF, sFLT-1 and PlGF by HTR cytotrophoblast cell line under hypoxia; assay type: cell-based
Method: (§1) We have shown that 5 μM, 10 μM and 30 μM of 2-ME can reduce the secreted levels of VEGF up to 75% in a dose dependent manner in a placenta cytotrophoblast cell line (HTR) under hypoxia. […] Similarly, 5 μM, 10 μM and 30 μM of 2-ME can reduce the secreted sFLT-1 levels by up to 50% or more in a dose dependent manner in the same cell lines under hypoxia (see FIGS. 1-3).

BeWo cells = test: Secretion of VEGF, sFLT-1 and PlGF by BeWo cytotrophoblast cell line under hypoxia; assay type: cell-based; details: 5 μM, 10 μM and 30 μM 2-ME
[2] = tested on: HTR-8/SV neo trophoblast cells; test: Blot of protein expression in trophoblast cell lysates under hypoxic conditions; assay type: cell-based; details: 5 μM, 10 μM and 30 μM 2-ME
Method: FIG. 5 is a blot showing that 2-methoxyestradiol treatment of HTR-8/SV neo trophoblast cells downregulations HIF-1α, VEGF165, Flt-1, and sFlt-1 expression in cell lysates under hypoxic conditions.
as §1

sFLT-1 and VEGF = test: Blood levels of sFLT-1 and VEGF in normal mice treated with 2-ME; assay type: in vivo; details: twice daily 30 μM 2-ME, blood samples
Method: Normal mice were treated with 2-ME twice daily with 30 μM of 2-ME. Blood samples were then obtained and assayed for the level of sFLT-1 and VEGF. […] The 30 μM concentration represents approximately the normal physiological level of 2-ME that is found in the blood of pregnant women in the late second trimester or early third trimester through the end of pregnancy. At the end of a pregnancy, levels of 2-ME in non-preeclamptic subjects drops back to non pregnant levels, which are approximately 1-5 μM.

[3] = tested on: cytotrophoblasts from the placenta; test: Expression of HIF-1α and angiogenic factors in cytotrophoblasts from the placenta (summary statement); assay type: cell-based
[4] = tested on: tumor and non-tumor cell lines; details: wide variety of tumor and non-tumor cell lines; cited from earlier work
[5] = administered orally; cited from earlier work
HIF-1 = details: cited from earlier work
[6] = 5 μM, 10 μM and 30 μM 2-ME, dose dependent, HTR cell line, hypoxia

With `COc1cc2c(cc1O)CC[C@@H]1[C@@H]2CC[C@]2(C)[C@@H](O)CC[C@@H]12` [2-ME, 2-methoxyestradiol] the PlGF secretion levels ([1]; 5 μM, 10 μM and 30 μM 2-ME, HTR cell line, hypoxia) was “reduce PlGF secretion levels in a dose dependent manner”, the PlGF secretion levels ([1]; 5 μM, 10 μM and 30 μM 2-ME, HTR cell line, hypoxia, listed as 2-methoxyestradiol) was “reduction of PlGF secretion” and the “reduction of secreted levels of VEGF” value [1, 6] was “up to 75%”. The “reduction of secreted sFLT-1 levels” value [1, 6] was ≥ 50%, the “sFLT-1 production / secretion” value ([1]; HTR / HTR-8/SV neo cells) was “reduction of sFLT-1 production” and the “secretion of VEGF” value ([1]; HTR / HTR-8/SV neo cells) was “reduces secretion of VEGF; also recorded: reduction”. For the same compound, the PlGF secretion levels (BeWo cells) was “reduce PlGF secretion levels in a dose dependent manner”, the “reduction of secreted sFLT-1 levels” value (BeWo cells; dose dependent) was ≥ 50% and the “expression level of Flt-1 in cell lysates” value [2] was “downregulated”. For the same compound, the “expression level of HIF-1α in cell lysates” value [2] was “downregulated”, the “expression level of VEGF165 in cell lysates” value [2] was “downregulated” and the “expression level of sFlt-1 in cell lysates” value [2] was “downregulated”. For the same compound, the “expression level of Flt-1 in cell lysates” value ([2]; listed as 2-methoxyestradiol) was “downregulations”, the “expression level of HIF-1α in cell lysates” value ([2]; listed as 2-methoxyestradiol) was “downregulations” and the “expression level of VEGF165 in cell lysates” value ([2]; listed as 2-methoxyestradiol) was “downregulations”. For the same compound, the “expression level of sFlt-1 in cell lysates” value ([2]; listed as 2-methoxyestradiol) was “downregulations”, the “bound VEGF” value (sFLT-1 and VEGF) was “decrease in bound VEGF” and the “reduction in sFLT-1 expression” value (sFLT-1 and VEGF) was 50%. The “expression of HIF-1α” value [3] was “decreases”, the “expression of VEGF, PlGF, VEGF Receptor 1 (VEGFR1) and sFLT-1” value [3] was “dramatic decrease” and the anti-proliferative activity [4] was “potent”. For the same compound, the apoptosis [4] was “induces apoptosis”, the “antitumor and antiangiogenic activity” value [5] was “exhibits antitumor and antiangiogenic activity” and the toxicity [5] was “little or no toxicity”. The “HIF-1 induced transcriptional activation of VEGF expression” value (HIF-1) was “inhibits” and the HIF-1 level (HIF-1; posttranscriptional level) was “downregulate”.

— patent US8273383B2, “Methods and compositions for treatment of preeclampsia” (Children's Medical Center Corporation, priority 2004, dated 2012)
